Assay [1] has as its system Sprague-Dawley rats. Put plainly: Geller-Seifter conflict test. It counts as in vivo. An excerpt:
This animal model of human anxiety utilizes a conditioned state of conflict in rats to ascertain the anxiolytic properties of drugs. […] The first includes bar pressing under a variable […] schedule without punishment. The second component is a fixed ratio schedule with each bar press resulting in a positive reinforcement and a punishment. The punished component produces a state of conflict within the animal. […] An anxiolytic response would increase the punished responding without affecting the unpunished responding.
Rats were housed individually under a 12-hour light-dark cycle with lights on from 0700-1900.
Rats were trained in test chambers (Coulbourn instruments) with a lever mounted in one wall, a small dipper that delivered the 0.1-mL milk reward (1 part Eagle condensed : milk 2 parts water), and a metal grid floor through which the foot-shock punishment was administered. A DEC PDP 11/73 minicomputer nmning SKED (State Systems) was used for programming and recording.
Rates initially learned to respond on a continuous reinforcement schedule and progressed rapidly to 30-sec, 1-min, and 2-min variable interval (VI) schedules. On the continuous reinforcement schedule, rats received milk reward following every lever press; on the VI schedules, milk rewards were available at infrequent and variable intervals, eventually at an average of once every 2 min. […] During conflict periods, which were signalled by the presentation of a light and a tone, the continuous reinforcement schedule was again in force and each lever press delivered both a milk reward and a brief ([…]) foot-shock Shock intensity was 0.2 mA initially, and.was increased daily in increments of 0.02 mA in order to gradually suppress lever pressing to 5 responses or less per conflict period. […] Drug-induced increases in the rate of punished responses were taken as an index of antianxiety activity, while decreases in the rate of unpunished responses were taken as an index of response depression or sedation.

In assay [2] the target is GR complex. Briefly: [35S]TBPS binding assay (inhibition of [35S]TBPS binding, cerebral cortex P2 homogenate). Also noted: species or system rat. The method in brief: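 Rat (male Sprague-Dawley) cortical P2 homogenate (0.5 mg protein) in 50 mM Na/K phosphate pH 7.4, 200 mM NaCl, incubated with 2 nM [35S]TBPS plus steroid test compounds (DMSO) in presence of GABA plus (+)bicuculline, 25°C, 90 min. Filtration, scintillation counting; nonspecific binding defined with […].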

What is called IC50 is the concentration that gives 50% inhibition. The low end stands for higher potency, the high end for lower potency.

Consider `COCC1(O)CCC2(C)C(CCC3C2CCC2(C)C(C(=O)CSS(=O)(=O)[O-])CCC32)C1.[Na+]` (stereo not drawn) [sodium S-(3α-hydroxy-3β-methoxymethyl-5α-pregnan-20-on-21-yl) thiosulfate], for which, in assay [1] (PO, water, 32 mg/kg), the “Geller/ Seifter (% of control)” value is listed as 4487.5 % of control. The compound also gave an IC50 in assay [2] (2 nM [35S]TBPS, rat cerebral cortex P2 homogenate) of 132 nM. The compound further came in with an IMAX in assay [2] (maximum inhibition of [35S]TBPS binding) of 103%.

As to `CC(=O)C1CCC2C3CCC4CC(O)(C(F)(F)F)CCC4(C)C3C(N(C)C)CC12C` (stereo not drawn) [11α-N,N-Dimethylamino-3α-hydroxy-3β-trifluoromethyl-5β pregnan-20-one], the “Geller/ Seifter (% of control)” value in assay [1] (IP, citrate, 20 mg/kg) is 145 % of control.

In the case of `CCOC[C@@]1(O)CC[C@@]2(C)[C@@H](CC[C@@H]3[C@@H]2CC[C@]2(C)[C@@H](C(C)=O)CC[C@@H]32)C1` [3α-hydroxy-3β-ethoxymethyl-5α-pregnan-20-one], in assay [1] (IP, 50% hpbcd, 40 mg/kg), the “Geller/ Seifter (% of control)” value is 3743 % of control.

For the compound `COC[C@@]1(O)CC[C@@]2(C)[C@@H](CC[C@@H]3[C@@H]2CC[C@]2(C)[C@@H](C(C)=O)CC[C@@H]32)C1` [3α-Hydroxy-3β-methoxymethyl-5α-pregnan-20-one], in assay [1] (IP, 50% hpbcd, 10 mg/kg), the “Geller/ Seifter (% of control)” value is 958 % of control.

The values above are taken from patent EP1038880B1, “Androstanes and pregnanes for allosteric modulation of GABA receptor” (priority 1994, dated 1995).
